Experiments:
[1] = tested on: F. culmorum; experiment: Inhibitory effect of pure lipopeptides and their combinations on fungal growth
Procedure: (§1) To further explore the potential synergistic effect between bioactive metabolites assays with single families of bioactive compounds and their combinations were performed.
(§2) Increasing concentrations of pure stocks of surfactin (Sigma S3523, FIG. 4A), fengycin (Sigma SMB00292, FIG. 4B) or iturin (Sigma 11774, FIG. 4C) were added to 48-well microtiter plates containing PDB medium and a fixed fungal spore concentration. Inhibitory effect over two different phytopathogenic species was assayed, F. culmorum (FIG. 4, left) and B. cinerea (FIG. 4, right). Plates were incubated at 25° C. without shaking for 60 hours (in dark conditions) and fungal growth was measured by spectrophotometry at 600 nm.
(§3) Fungal growth inhibition of increasing concentrations of single compounds was compared with compound combinations, where a fixed concentration of one of them was assayed in combination with increasing concentrations of the second metabolite.

[2] = tested on: B. cinerea; experiment: as above
Procedure: as §1, §2, §3

[3] = in the presence of surfactin, vs fengycin alone
[4] = single lipopeptide, 25° C., 60 hours
[5] = with surfactin at 100-200 μg/ml

Substance	increase of bioactivity of fengycin in the presence of surfactin [1, 3]	inhibition of fungal growth [1, 4]	effective concentration of fengycin required to inhibit growth [1, 5] [µg/mL]	increase of bioactivity of fengycin in the presence of surfactin [2, 3]	inhibition of fungal growth [2, 4]	effective concentration of fengycin required to inhibit growth [2, 5] [µg/mL]	effective concentration for strong growth inhibition [1, 4] [µg/mL]	effective concentration for strong growth inhibition [2, 4] [µg/mL]	inhibitory effect on growth at high concentrations ([1]; 200-400 μg/ml surfactin alone)	inhibitory effect on growth at high concentrations ([2]; 200-400 μg/ml surfactin alone)
fengycin	up to 6 fold	potent inhibition of fungal growth	12.5	up to 6 fold	potent inhibition of fungal growth	12.5				
iturin		potent inhibition of fungal growth			potent inhibition of fungal growth		9	9		
surfactin		only compromised pathogen growth very weakly			only compromised pathogen growth very weakly				very modest and barely decreased the growth	very modest and barely decreased the growth
